Inhibition data for six molecules are collected here from patent US8901307B2, “Chemical compounds 251” (AstraZeneca AB, priority 2008, dated 2014).

Each structure is given as a SMILES string. Structures can show the parent of a compound that is named as a salt.

In test [1] the target is T1, human His-PIM1 [2-313] (Homo sapiens, UniProt P11309).
T1 construct: purified human His-PIM1 [2-313] enzyme; His (N); purchased University of Dundee, Scotland; host or cells: baculovirus system
Put plainly: PIM1 in-vitro mobility shift assay (Caliper LC3000, FL-Ahx-Bad phosphorylation). It is filed as biochemical. As to conditions: 1.5 h; percent inhibition at 0.3 uM compound; read-out: PIM1 % I at 0.3 uM. Put shortly:
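Compound preincubated 20 min at 25 °C with 2.4 nM PIM1, 3.6 µM FL-Ahx-Bad peptide and 240 µM ATP (1.2× mix concentrations). Reaction started with 24 mM MgCl2 mix, run 90 min at 25 °C, EDTA-stopped. Phospho/unphospho peptide separated by microfluidic mobility shift; percent inhibition from ratiometric turnover.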

Test [2] has as its target T2, human His-PIM2 [23-299] (Homo sapiens, UniProt Q9P1W9).
T2 construct: purified human His-PIM2 [23-299] enzyme; His (N); host or cells: E. coli
Put plainly: PIM2 in-vitro mobility shift assay (Caliper LC3000, FL-Ahx-Bad phosphorylation). It is filed as biochemical. As to conditions: 1.5 h; percent inhibition at 0.3 uM compound; read-out: PIM2 % I at 0.3 uM.

T1 sequence (P11309 2-313): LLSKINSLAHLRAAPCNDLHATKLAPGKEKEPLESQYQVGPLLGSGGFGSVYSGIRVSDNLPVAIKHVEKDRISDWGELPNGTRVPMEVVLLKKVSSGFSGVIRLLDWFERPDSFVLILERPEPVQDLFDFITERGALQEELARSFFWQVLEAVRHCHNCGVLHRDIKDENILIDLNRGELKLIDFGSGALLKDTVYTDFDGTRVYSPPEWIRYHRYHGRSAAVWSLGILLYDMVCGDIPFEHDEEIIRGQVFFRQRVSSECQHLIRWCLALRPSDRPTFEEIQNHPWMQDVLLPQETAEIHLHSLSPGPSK
T2 sequence (Q9P1W9 23-299): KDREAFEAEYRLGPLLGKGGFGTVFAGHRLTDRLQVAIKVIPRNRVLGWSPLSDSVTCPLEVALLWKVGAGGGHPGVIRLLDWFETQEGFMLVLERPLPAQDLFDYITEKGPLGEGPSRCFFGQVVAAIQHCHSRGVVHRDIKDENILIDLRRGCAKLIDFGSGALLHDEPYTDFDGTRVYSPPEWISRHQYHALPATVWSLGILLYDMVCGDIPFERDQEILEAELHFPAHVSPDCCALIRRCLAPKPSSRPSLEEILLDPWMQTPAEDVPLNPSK

Regarding `CCN(CC)CCOc1ccccc1/C=C1\SC(=O)NC1=O` [Example 64, (Z)-5-(2-(2-(diethylamino)ethoxy)benzylidene)thiazolidine-2,4-dione], the values for the inhibition at 0.3 µM in test [1] and in test [2] were 86.5% and 25.7%, respectively.
For `N[C@@H]1CCCN(c2c(/C=C3\SC(=O)NC3=O)cccc2OC2CCC2)C1` [Example 122AD, (R,Z)-5-(2-(3-aminopiperidin-1-yl)-3-cyclobutoxybenzylidene)thiazolidine-2,4-dione hydrochloride], in that order: over 95% and over 95%.
On the same counts, the results for `O=C1NC(=O)/C(=C/c2ccccc2N2CCN(C(=O)C3CNC3)CC2)S1` [Example 117, (5Z)-5-{2-[4-(azetidin-3-ylcarbonyl)piperazin-1-yl]benzylidene}-1,3-thiazolidine-2,4-dione hydrochloride] are over 95% and over 95%.
For `COc1ccc(N2CC[C@H](N(C)C)C2)c(C=C2SC(=O)NC2=O)c1` [Example 84G, (S)-5-(2-(3-(dimethylamino)pyrrolidin-1-yl)-5-methoxybenzylidene)thiazolidine-2,4-dione], in that order: 92% and 63%.
`CN(C)C1CCN(c2ccccc2/C=C2\SC(=O)NC2=O)CC1` [Example 49, (5Z)-5-{2-[4-(dimethylamino)piperidin-1-yl]benzylidene}-1,3-thiazolidine-2,4-dione]: the inhibition at 0.3 µM in test [1] is over 95%; in test [2], 86.3%.
For `CN(C)[C@H]1CCN(c2cccc(Cl)c2C=C2SC(=O)NC2=O)C1` [Example 84O, (S)-5-(2-chloro-6-(3-(dimethylamino)pyrrolidin-1-yl)benzylidene)thiazolidine-2,4-dione], in that order: under 5% and under 5%.
